Source: publication PMC11040665, “Aminothiazolone Inhibitors Disrupt the Protein–RNA Interaction of METTL16 and Modulate the m^6A RNA Modification” (JACS Au, 2024)
Entries after “also recorded” stand apart in the source; their conditions may differ.

Tests used:
[1] = biological target: T1, METTL16 MTD–GGACU-containing RNA interaction (Homo sapiens, UniProt Q86W50); assay: EMSA with GGACU-containing RNA; details: 5 nM RNA, 600 nM METTL16 MTD
T1 sequence (Q86W50 1-291): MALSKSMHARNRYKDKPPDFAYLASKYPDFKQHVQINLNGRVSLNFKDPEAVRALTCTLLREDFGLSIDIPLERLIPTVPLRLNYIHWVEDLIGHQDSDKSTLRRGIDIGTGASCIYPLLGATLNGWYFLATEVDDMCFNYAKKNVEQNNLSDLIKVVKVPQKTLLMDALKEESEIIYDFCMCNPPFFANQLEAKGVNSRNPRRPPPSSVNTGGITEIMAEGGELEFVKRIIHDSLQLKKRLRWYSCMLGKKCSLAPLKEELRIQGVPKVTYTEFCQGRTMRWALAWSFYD
Protocol: METTL16 MTD protein (1–291) was incubated with the indicated compound or DMSO in a buffer containing 20 mM HEPES, pH 7.5, 50 mM NaCl, 0.05% v/v Tween 20, and 0.05 mg/mL BGG at room temperature for 30 min; subsequently, FAM-MAT2A-hp1 RNA probe was added and incubated at room temperature for 10 min, the final of protein and RNA are 50 and 5 nM respectively, and 1% DMSO was used as the control. […] The gel was detected and imaged by Chemi Doc MP (Bio-Rad). […] EMSA for testing compounds with GGAUC-motif containing RNA and METTL16 MTD interaction was performed using the method described above, expecting that the final of METTL16 MTD protein and FAM-labeled-GGACU RNA are 600 nM and 5 nM respectively. EMSA for RNA binding: indicated concentrations of fluorophore-labeled RNA were incubated with indicated concentrations of protein in EMSA buffer for 15 min at room temperature, then loaded to native PAGE gels and imaged with the method described above.

[2] = biological target: T2, methyltransferase activity of METTL16 MTD toward MAT2A-hp1 (Homo sapiens, UniProt Q86W50); assay: In vitro methylation assay (MTase Glo); type: biochemical; details: for inhibition of the methyltransferase activity of METTL16 MTD, in words: RNA substrate MAT2A-hp1
T2 construct: METTL16 MTD (1–291) was subcloned to pOPINB plasmid; His tag followed by HRV 3C cleavage site (N, cleaved yes); made in house; host or cells: E. coli Rosetta (DE3)
T2 sequence (Q86W50 1-291): T1 sequence (Q86W50 1-291)
Protocol: Next, we evaluated the inhibition of the METTL16 methylation using the MTase Glo assay kit (Promega) measuring the methyltransferase activity based on the formation of the methylation product S-adenosyl homocysteine, which was converted to ADP by the MTase-Glo reagent to trigger a subsequent luciferase reaction (Figure 5E).
The methyltransferase activity of METTL16 MTD was measured using an MTase Glo kit (Promega V7601) following the manufacturer’s instructions. The reaction was carried out in white 384-well plates (Corning #3824), with a total methyltransferase reaction volume of 8 μL, and the final concentrations of METTL16 MTD, MAT2A-hp1, and SAM were 1, 1, and 10 μM, respectively, and 1% of DMSO was used as a control. […] To use SAM at a different final concentration, the concentration of SAM was adjusted accordingly in a 2× substrate solution.

METTL16 (1-291) = biological target: T3, METTL16 (1-291) (Homo sapiens, UniProt Q86W50); assay: Covalent binding evaluation by protein LC–MS; details: 30 μM METTL16 (1-291), 100 μM compound, 30 or 150 min
T3 construct: METTL16 MTD (1–291) was subcloned to pOPINB plasmid; His tag followed by HRV 3C cleavage site (N, cleaved yes); made in house; host or cells: E. coli Rosetta (DE3)
T3 sequence (Q86W50 1-291): T1 sequence (Q86W50 1-291)
Protocol: To evaluate whether the aminothiazolones covalently bind to METTL16, we performed the LC–MS analysis after incubating the protein with aminothiazolones for 30 and 150 min, respectively. In the case of covalent binding, we would expect to observe the formation of covalent adducts, which would accrue over time. […] Besides the LC–MS analysis result, an irreversible inhibition counter screening indicated the reversible inhibitory activity of the aminothiazolones (Figure S8A).
Figure S7. Covalent evaluation of METTL16 inhibitors via LC-MS. (A) Deconvoluted mass spectrum of 30 µM METTL16 (1-291) incubated with 1% DMSO for 30 min (left) and 150 min (right). (B), (C), (D) Deconvoluted […]
(right). Expected Mass for METTL16 (1-291), 33455.7 Da. The observed small mass shift of ~50 Da appeared in both the DMSO control and compound-treated samples was probably formed by the solvent used in the LC-MS.
(1 picture or pasted object on this page, not shown here)
For computational docking analysis of aminothiazolones to the RNA binding site of METTL16 (PDB code: 6B91)2 Schrödinger® Maestro 12.3 was used. […]
Chemical states were generated with the ligand preparation module and METTL16 conformation with the protein preparation module. […] The glide dock module was used and the results were evaluated according to interactions between small molecules and METTL16, small molecule orientations, docking scores and solvent exposure patterns. […]
METTL16 MTD protein was diluted in SEC buffer (20mM pH 7.5, 200 mM NaCl, 0.5 mM TCEP,5% v/v glycerol) to a final concentration of 30 µM, and incubated with DMSO or 100 μM compound (final 1% DMSO) at room temperature. After incubation (30 min or 150 min), the samples were analyzed on an Agilent 1260 II Infinity system equipped with an electrospray ion source in positive mode, run through a Desalting cartridge (AdvanceBio Desalting-RP, 2.1 mm, 12.5mm, Agilent) with a gradient of 5-80% HPLC-grade acetonitrile (+ 0.1% TFA) in HPLC-grade water (+ 0.1% TFA) (flowrate: 0.4 mL/min, runtime: 6 min). […]

MDA-MB-231 cells = assay: Colony formation assay; type: cell-based, human; details: 7 days, three tested concentrations
Protocol: MDA-MB-231 cells were collected and seeded with the density of 1000 cells per well into 24-well plates; after being cultured overnight, the medium was exchanged and treated with indicated compounds or DMSO (0.5%) as the control. The medium change and treatment were performed every 3 days. After 7 days, the cell culture medium was discarded, and cells were washed with PBS and fixed with 4% paraformaldehyde solution at room temperature for 15 min; the paraformaldehyde solution was removed, and cells were washed with PBS again to remove the paraformaldehyde. Then cells were stained with 0.1% (w/v) crystal violet. After staining for 15 min, the cells were washed with H2O to remove the extra dye and then photographed.

[3] = biological target: T4, METTL16 MTD–U6 snRNA Δ interaction (Homo sapiens, UniProt Q86W50); assay: FP assay with Cy5-labeled U6 snRNA Δ; type: binding
T4 construct: METTL16 MTD (1–291) was subcloned to pOPINB plasmid; His tag followed by HRV 3C cleavage site (N, cleaved yes); made in house; host or cells: E. coli Rosetta (DE3)
T4 sequence (Q86W50 1-291): T1 sequence (Q86W50 1-291)

[4] = biological target: T5, METTL16 (1-291)–FAM-MAT2A-hp1 RNA (Homo sapiens, UniProt Q86W50); assay: FP assay after incubating SAM with METTL16; type: binding; details: SAM incubated with METTL16 before the FP assay
T5 construct: METTL16 MTD (1–291) was subcloned to pOPINB plasmid; His tag followed by HRV 3C cleavage site (N, cleaved yes); made in house; host or cells: E. coli Rosetta (DE3)
T5 sequence (Q86W50 1-291): T1 sequence (Q86W50 1-291)

[5] = biological target: T6, METTL16–MAT2A-hp1 mRNA interaction (METTL16 MTD 1–291, FAM-labeled MAT2A-hp1 RNA) (Homo sapiens, UniProt Q86W50); assay: Fluorescence polarization (FP) assay, disruption of METTL16 binding to FAM-MAT2A-hp1 RNA
T6 sequence (Q86W50 1-291): T1 sequence (Q86W50 1-291)
Protocol: The binding of METTL16 to the FAM-labeled RNA probe formed a complex that led to a higher FP signal in comparison to that of the unbound RNA probe (Figure 2A). […] The Z-factor of 0.91 indicated the suitability of the assay condition (Figure S2D). […] In both FP assay and EMSA, a final concentration of 50 nM METTL16 and 5 nM FAM-MAT2A-hp was used. The METTL16 MTD (amino acids 1–291) was used in this study unless specifically indicated otherwise.
The FP assay was performed using 384-well black plates (Corning #4514) in a total reaction volume of 20 μL, with the final concentration of protein and RNA being 50 and 5 nM respectively. Compounds were diluted in FP buffer and incubated with protein for 30 min at room temperature, then FAM-MAT2A-hp1 RNA probe was added and the fluorescence polarization was measured using a TECAN Spark plate reader, under the excitation wavelength of 485 nm and the emission wavelength of 535 nm with bandwidth of 20 nm. 1% DMSO was used as the control. The inhibition was calculated with the equation: inhibition = 100%(Control – X)/(Control – Blank); Control: DMSO with protein and FAM-RNA; Blank: DMSO with FAM-RNA; X: compound with protein and FAM-RNA. The IC50 value was further determined using GraphPad Prism 9. […] The polarization was measured under an excitation wavelength of 630 nm and an emission wavelength of 680 nm with a bandwidth of 20 nm.

Compound | inhibition of METTL16–GGACU RNA binding in EMSA, in words [1] | inhibition of the methyltransferase activity of METTL16 MTD, in words [2] | covalent adduct formation with METTL16 (LC–MS) (METTL16 (1-291)) | inhibition on colony formation, in words (MDA-MB-231 cells) | IC50 [3] [nM] | IC50 under different SAM concentrations (FP assay), in words [4] | IC50 [5] [nM] | inhibition at 50 µM ([2]; at 50 μM, 1 μM METTL16 MTD, 1 μM MAT2A-hp1, 10 μM SAM) [%]
CN1C(=O)C(=C2SC(NS(=O)(=O)c3ccc(C(=O)O)cc3)=NC2=O)c2cc(Br)ccc21 [Compound 45] | dose-dependently inhibited | dose-dependently inhibited | no such covalent adduct with a mass shift was observed | did not show obvious inhibition on colony formation | 2500 | remained | 1700 | –
O=C1N=C(NS(=O)(=O)c2ccc(C(=O)O)cc2)SC1=C1C(=O)Nc2ccc(Br)cc21 [Compound 47] | dose-dependently inhibited | dose-dependently inhibited; also recorded: potent inhibitory activity | no such covalent adduct with a mass shift was observed | mild inhibitory activity against colony formation | 6400 | remained | 2100 | > 50
